Test results reported in ChEMBL document CHEMBL1142222, “A-803467, a potent and selective Nav1.8 sodium channel blocker, attenuates neuropathic and inflammatory pain in the rat” (Proc Natl Acad Sci U S A, 2007).
pIC50: −log10 of the molar value.

Experiments:
[1] = target: Sodium channel protein type 10 subunit alpha (Rattus norvegicus, UniProt Q62968); assay: Inhibition of Nav1.8 channel in rat dorsal root ganglion neurons assessed as blockade of TTX-R current by patch clamp method; type: tissue-based
Rattus norvegicus = assay: Analgesic activity in ip dosed rat chronic constriction injury model of mechanical allodynia; type: functional

Sodium channel protein type 10 subunit alpha, sequence (Q62968 whole entry): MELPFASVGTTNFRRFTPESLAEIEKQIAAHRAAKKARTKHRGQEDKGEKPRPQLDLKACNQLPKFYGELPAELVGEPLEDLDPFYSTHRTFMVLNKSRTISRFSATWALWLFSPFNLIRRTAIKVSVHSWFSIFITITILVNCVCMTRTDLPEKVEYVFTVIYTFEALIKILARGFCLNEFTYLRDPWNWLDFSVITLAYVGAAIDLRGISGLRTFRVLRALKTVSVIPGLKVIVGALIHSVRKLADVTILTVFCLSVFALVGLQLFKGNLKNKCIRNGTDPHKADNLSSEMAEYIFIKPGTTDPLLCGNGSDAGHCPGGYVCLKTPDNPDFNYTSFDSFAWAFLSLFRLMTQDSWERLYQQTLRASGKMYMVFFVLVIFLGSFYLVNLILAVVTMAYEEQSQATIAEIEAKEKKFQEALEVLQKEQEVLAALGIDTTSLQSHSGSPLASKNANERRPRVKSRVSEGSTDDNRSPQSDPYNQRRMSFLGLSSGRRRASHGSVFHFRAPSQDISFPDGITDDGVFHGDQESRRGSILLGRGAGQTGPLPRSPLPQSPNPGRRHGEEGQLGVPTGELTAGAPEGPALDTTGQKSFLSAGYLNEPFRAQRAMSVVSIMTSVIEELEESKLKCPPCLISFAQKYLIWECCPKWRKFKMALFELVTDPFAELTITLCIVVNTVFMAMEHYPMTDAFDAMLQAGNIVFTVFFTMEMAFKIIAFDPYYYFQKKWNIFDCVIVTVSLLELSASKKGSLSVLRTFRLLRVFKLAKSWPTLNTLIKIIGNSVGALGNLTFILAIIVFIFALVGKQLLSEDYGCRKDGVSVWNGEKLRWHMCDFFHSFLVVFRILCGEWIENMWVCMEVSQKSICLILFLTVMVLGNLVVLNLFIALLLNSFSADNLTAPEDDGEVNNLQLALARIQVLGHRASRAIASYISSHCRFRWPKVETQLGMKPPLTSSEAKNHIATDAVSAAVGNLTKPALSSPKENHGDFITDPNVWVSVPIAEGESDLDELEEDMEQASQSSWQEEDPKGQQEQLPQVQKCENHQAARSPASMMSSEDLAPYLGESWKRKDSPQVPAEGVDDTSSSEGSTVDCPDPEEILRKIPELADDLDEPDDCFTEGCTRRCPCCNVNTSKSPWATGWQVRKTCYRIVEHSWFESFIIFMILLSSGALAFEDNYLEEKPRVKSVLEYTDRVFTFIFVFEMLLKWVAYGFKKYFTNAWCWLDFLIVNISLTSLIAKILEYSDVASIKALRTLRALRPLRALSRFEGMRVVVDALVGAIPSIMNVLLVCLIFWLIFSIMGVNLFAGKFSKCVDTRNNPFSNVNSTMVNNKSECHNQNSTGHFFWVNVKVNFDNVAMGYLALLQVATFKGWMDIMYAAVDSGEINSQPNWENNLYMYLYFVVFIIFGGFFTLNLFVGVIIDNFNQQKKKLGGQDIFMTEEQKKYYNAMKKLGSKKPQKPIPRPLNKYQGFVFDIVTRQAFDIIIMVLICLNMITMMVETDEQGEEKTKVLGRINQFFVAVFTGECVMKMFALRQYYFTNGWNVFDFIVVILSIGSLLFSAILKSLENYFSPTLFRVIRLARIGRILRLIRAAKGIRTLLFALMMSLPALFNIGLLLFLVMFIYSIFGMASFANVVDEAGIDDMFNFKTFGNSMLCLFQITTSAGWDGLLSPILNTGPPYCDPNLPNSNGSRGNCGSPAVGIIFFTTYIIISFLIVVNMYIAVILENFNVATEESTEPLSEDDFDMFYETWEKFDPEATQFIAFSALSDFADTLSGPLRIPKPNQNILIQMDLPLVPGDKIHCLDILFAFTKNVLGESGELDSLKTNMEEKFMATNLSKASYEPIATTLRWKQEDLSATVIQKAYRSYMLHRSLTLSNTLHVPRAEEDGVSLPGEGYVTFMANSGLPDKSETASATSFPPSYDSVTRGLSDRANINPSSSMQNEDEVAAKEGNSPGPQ

SMILES	pIC50 [1]	ED50 (Rattus norvegicus)
Cc1cccc(C)c1OCC(C)N (stereo not drawn) [MEXILETINE]	< 4.52	
Nc1nnc(-c2cccc(Cl)c2Cl)c(N)n1 [LAMOTRIGINE]		20 mg/kg
NCC1(CC(=O)O)CCCCC1 [GABAPENTIN]		40 mg/kg
